pIC50: −log10 of the molar value.

Assay [1] addresses T1, Long-chain-fatty-acid--CoA ligase 1 (Mus musculus, UniProt P41216).
T1 sequence (P41216 whole entry): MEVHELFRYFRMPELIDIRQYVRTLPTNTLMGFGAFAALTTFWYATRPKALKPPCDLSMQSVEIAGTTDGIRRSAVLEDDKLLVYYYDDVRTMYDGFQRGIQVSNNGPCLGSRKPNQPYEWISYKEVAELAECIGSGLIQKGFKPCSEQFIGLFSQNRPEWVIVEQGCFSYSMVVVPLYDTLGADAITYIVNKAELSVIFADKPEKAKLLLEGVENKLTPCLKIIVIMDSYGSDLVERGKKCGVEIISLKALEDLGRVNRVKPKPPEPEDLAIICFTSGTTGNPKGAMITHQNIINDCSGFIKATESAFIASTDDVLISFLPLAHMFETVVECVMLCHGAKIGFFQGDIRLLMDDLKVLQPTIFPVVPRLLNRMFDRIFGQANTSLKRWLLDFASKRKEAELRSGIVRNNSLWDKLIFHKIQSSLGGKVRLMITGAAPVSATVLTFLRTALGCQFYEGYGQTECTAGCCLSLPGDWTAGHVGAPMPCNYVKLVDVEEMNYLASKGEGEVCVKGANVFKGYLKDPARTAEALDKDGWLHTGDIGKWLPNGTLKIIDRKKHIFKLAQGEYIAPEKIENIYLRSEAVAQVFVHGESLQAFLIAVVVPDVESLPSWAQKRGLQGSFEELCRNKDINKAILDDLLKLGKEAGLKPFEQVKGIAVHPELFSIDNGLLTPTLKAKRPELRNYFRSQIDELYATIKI
The assay can be described thus: Inhibition of recombinant mouse ACSL1 assessed as reduction in […] prodution incubated for 90 mins in presence of Coenzyme A, ATP and MgCl2 by MALDI-TOF MS analysis.

Assay [2] deals with T2, Long-chain-fatty-acid--CoA ligase 1 (Homo sapiens, UniProt P33121).
T2 sequence (P33121 whole entry): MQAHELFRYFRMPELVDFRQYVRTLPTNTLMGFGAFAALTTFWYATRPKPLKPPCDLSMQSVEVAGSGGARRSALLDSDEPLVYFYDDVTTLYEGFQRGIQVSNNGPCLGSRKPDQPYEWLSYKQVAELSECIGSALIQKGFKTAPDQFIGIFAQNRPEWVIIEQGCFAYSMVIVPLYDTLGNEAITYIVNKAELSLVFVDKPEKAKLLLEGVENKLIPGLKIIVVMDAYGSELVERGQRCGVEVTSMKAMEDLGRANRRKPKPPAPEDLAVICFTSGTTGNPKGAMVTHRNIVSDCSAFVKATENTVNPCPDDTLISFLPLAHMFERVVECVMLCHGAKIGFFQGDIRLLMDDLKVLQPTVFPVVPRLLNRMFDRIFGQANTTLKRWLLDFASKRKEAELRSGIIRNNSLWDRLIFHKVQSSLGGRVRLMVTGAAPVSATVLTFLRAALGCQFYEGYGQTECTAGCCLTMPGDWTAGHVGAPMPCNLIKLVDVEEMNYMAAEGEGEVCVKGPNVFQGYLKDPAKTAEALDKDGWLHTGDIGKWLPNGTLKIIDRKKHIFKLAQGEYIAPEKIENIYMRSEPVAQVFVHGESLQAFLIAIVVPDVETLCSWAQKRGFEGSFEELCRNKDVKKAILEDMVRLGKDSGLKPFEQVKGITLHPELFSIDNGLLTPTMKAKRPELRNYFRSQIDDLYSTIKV
Kind of assay: Inhibition of recombinant human ACSL1 assessed as reduction in […] prodution incubated for 90 mins in presence of Coenzyme A, ATP and MgCl2 by MALDI-TOF MS analysis.

Assay [3] has as its target T2, Long-chain-fatty-acid--CoA ligase 1. Kind of assay: Inhibition of ACSL1 (unknown origin) assessed as reduction in […] prodution incubated for 90 mins in presence of Coenzyme A, ATP and MgCl2 by MALDI-TOF MS analysis.

With `Cc1cccc(Cc2nc3cc(O[C@H]4CC[C@@H](C(N)=O)CC4)ccc3n2C)c1`, the pIC50 in assay [1] is 6.72; in assay [2] it was 6.02.
For `Cn1c(Cc2cccc(C#N)c2)nc2cc(O[C@H]3CC[C@@H](C(=O)O)CC3)ccc21`, the results for the pIC50 in assay [1] and in assay [2] were 4.66 and 4.29, respectively.
The corresponding values for `Cc1cccc(Cc2nc3ccc(O[C@H]4CC[C@@H](C(=O)O)CC4)cc3n2C)c1` are less than 3.70 and less than 3.70.
On the same counts, the results for `Cc1cccc(Cc2nc3cc(O[C@H]4CC[C@@H](C(=O)O)CC4)c(Cl)cc3n2C)c1` are 7.00 and 7.33.
In the case of `O=c1c2ccccc2oc2ccc(O[C@H]3CC[C@H](C(=O)O)CC3)cc12`, the negative logarithm of the IC50 (pIC50) in assay [1] is 5.85; in assay [3], less than 3.70; in assay [2] it was 6.62.
`Cc1cccc(Cc2nc3cc(O[C@H]4CC[C@@H](c5nnn[nH]5)CC4)ccc3n2C)c1`: the results for the pIC50 in assay [1] and in assay [2] were 7.60 and 7.47, respectively.
The corresponding values for `Cc1cccc(Cc2nc3cc(O[C@H]4CC[C@@H](C(=O)O)CC4)ccc3o2)c1` are 6.85 and 7.41.
The corresponding values for `Cc1cccc(Oc2nc3cc(O[C@H]4CC[C@@H](C(=O)O)CC4)ccc3n2C)c1` are 4.68 and 4.11.
For `O=C(O)[C@H]1CC[C@@H](Oc2ccc3oc(-c4ccccc4)nc3c2)CC1`, the pIC50 in assay [1] was 4.23; in assay [2], 5.36.
The corresponding values for `Cc1cccc(Cc2c(C(N)=O)c3cc(O[C@H]4CC[C@@H](C(=O)O)CC4)ccc3n2C)c1` are 6.36 and 6.22.
The corresponding values for `Cn1c(Cc2cccnc2)nc2cc(O[C@H]3CC[C@@H](C(=O)O)CC3)ccc21` are less than 3.70 and 3.85.
On the same counts, the results for `Cc1cccc(Cc2nc3cc(O[C@H]4CC[C@@H](c5noc(=O)[nH]5)CC4)ccc3n2C)c1` are 7.00 and 7.33.
Take `O=c1c2ccccc2oc2ccc(OC[C@H]3CC[C@@H](C(=O)O)CC3)cc12`: in assay [3], the negative-log IC50 (pIC50) was less than 3.70.
With `Cc1ccc(Cc2nc3cc(O[C@H]4CC[C@@H](C(=O)O)CC4)ccc3n2C)cc1`, the pIC50 in assay [1] was 7.10; in assay [2] it was 6.82.
For `O=C(O)C[C@H]1CC[C@@H](Oc2ccc3oc4ccccc4c(=O)c3c2)CC1`, the pIC50 in assay [3] was 4.74.
Same read-out and setting: to `O=C(O)C[C@H]1CC[C@H](Oc2ccc3oc4ccccc4c(=O)c3c2)CC1` belongs less than 3.70.
Regarding `O=c1c2ccccc2oc2ccc(OC[C@H]3CC[C@H](C(=O)O)CC3)cc12`, in assay [3], the pIC50 is less than 3.70.
Regarding `Cn1c(Cc2ccc3c(c2)OCC3)nc2cc(O[C@H]3CC[C@@H](C(=O)O)CC3)ccc21`, the pIC50 was 7.44 in assay [1] and 7.89 in assay [2].
On the same counts, the results for `Cc1cccc(Cc2cc3cc(O[C@H]4CC[C@@H](C(=O)O)CC4)ccc3n2C)c1` are 6.40 and 6.40.
With `Cc1cccc(COc2nc3cc(O[C@H]4CC[C@@H](C(=O)O)CC4)ccc3n2C)c1`, the pIC50 is 5.09 in assay [1] and 4.77 in assay [2].
The corresponding values for `Cc1cccc(Cc2nc3c(Cl)c(O[C@H]4CC[C@@H](C(=O)O)CC4)ccc3n2C)c1` are 4.25 and 4.21.
On the same counts, the results for `Cn1c(Cc2cccc(C(F)(F)F)c2)nc2cc(O[C@H]3CC[C@@H](C(=O)O)CC3)ccc21` are 7.07 and 6.72.
As for `O=C(O)c1ccc(Oc2ccc3oc4ccccc4c(=O)c3c2)cc1`, in assay [3], the negative logarithm of the IC50 (pIC50) is less than 3.70.
Consider `Cc1cccc(Cc2c(C#N)c3cc(O[C@H]4CC[C@@H](C(=O)O)CC4)ccc3n2C)c1`, for which the pIC50 is 6.22 in assay [1] and 5.72 in assay [2].
On the same counts, the results for `Cn1c(Cc2ccc3c(c2)OCC3)nc2cc(O[C@H]3CC[C@@](F)(c4nnn[nH]4)CC3)ccc21` are 7.82 and 8.52.
On to `Cc1ccccc1Cc1nc2cc(O[C@H]3CC[C@@H](C(=O)O)CC3)ccc2n1C`, for which the negative-log IC50 (pIC50) in assay [1] was 5.27; in assay [2], 5.11.
Consider `Cc1cccc(C(=O)c2nc3cc(O[C@H]4CC[C@@H](C(=O)O)CC4)ccc3n2C)c1`, for which, in assay [2], the pIC50 is less than 3.70.
As for `Cc1cccc(Cc2nc3nc(O[C@H]4CC[C@@H](C(=O)O)CC4)ccc3n2C)c1`, the results for the pIC50 in assay [1] and in assay [2] were 7.10 and 7.36, respectively.
The corresponding values for `Cc1cccc(Cc2nc3cc(O[C@H]4CC[C@@H](C(=O)O)CC4)ncc3n2C)c1` are 4.34 and 4.39.
Consider `Cc1cccc(Cc2nc3cc(O[C@H]4CC[C@@H](C(=O)O)CC4)cc(Cl)c3n2C)c1`, for which the pIC50 in assay [1] is 6.77; in assay [2] it was 7.55.
The corresponding values for `Cc1cccc(Cn2nc3cc(O[C@H]4CC[C@@H](C(=O)O)CC4)ccc3c2C)c1` are 7.28 and 7.35.
Take `O=C(O)[C@H]1CC[C@@H](Oc2ccc3c(c2)Cc2ccccc2O3)CC1`: the figures for the pIC50 in assay [1] and in assay [2] were 5.40 and 5.34, respectively.
On the same counts, the results for `Cc1cccc(Cc2nc3cc(O[C@H]4CC[C@@](F)(c5nnn[nH]5)CC4)ccc3n2C)c1` are 7.89 and 7.89.
On the same counts, the results for `Cc1cccc(Cc2nc3cc(O[C@H]4CC[C@@H](C(=O)O)CC4)ccc3n2C(C)C)c1` are less than 3.70 and less than 3.70.
